Data as given in ChEMBL document CHEMBL1137184, “Anti-HIV activity of some synthetic lignanolides and intermediates” (Bioorg Med Chem Lett, 2004).

Tests used:
[1] = test system: Human immunodeficiency virus 1; test: Compound was evaluated for the inhibition of HIV-1 LTR by TNF-alpha-induced NF-kB assay at 100 uM concentration (TNF-alpha-treated cells); format: functional
[2] = test system: Human immunodeficiency virus 1; test: Compound was evaluated for anti-Tat activity in the HeLa-TAT-Luc cell assay against human immunodeficiency virus at 100 uM concentration (Untreated cells); format: functional
[3] = Compound was evaluated for toxicity in necrosis using MT2 assay at 50 uM concentration at 24 hr; conditions: human
[4] = test system: Human immunodeficiency virus 1; test: Compound was evaluated for the inhibition of HIV-1 LTR by TNF-alpha-induced NF-kB assay at 50 uM concentration (TNF-alpha-treated cells); format: functional
[5] = test system: Human immunodeficiency virus 1; test: Compound was evaluated for anti-Tat activity in the HeLa-TAT-Luc cell assay against human immunodeficiency virus at 50 uM concentration (Untreated cells); format: functional
[6] = test system: Human immunodeficiency virus 1; test: Compound was evaluated for anti-Tat activity in the HeLa-TAT-Luc cell assay against human immunodeficiency virus at 25 uM concentration (Untreated cells); format: functional
[7] = Compound was evaluated for toxicity in necrosis using MT2 assay at 25 uM concentration at 24 hr; conditions: human
[8] = test system: Human immunodeficiency virus 1; test: Compound was evaluated for the inhibition of HIV-1 LTR by TNF-alpha-induced NF-kB assay at 25 uM concentration (TNF-alpha-treated cells); format: functional
[9] = test system: Human immunodeficiency virus 1; test: Compound was evaluated for the inhibition of HIV-1 LTR by HeLa-Tet-ON assay at 50 uM concentration; format: functional
[10] = test system: Human immunodeficiency virus 1; test: Compound was evaluated for the inhibition of HIV-1 LTR by HeLa-Tet-ON assay at 25 uM concentration; format: functional
[11] = test system: Human immunodeficiency virus 1; test: Compound was evaluated for activity in Recombinant virus assay at concentration that reduces luciferase activity, thus recombinant virus replication; format: functional, organism-based
[12] = Compound was evaluated for IP toxicity at concentration that reduces cellular growth; conditions: human
[13] = test system: Human immunodeficiency virus 1; test: Compound was evaluated for the inhibition of HIV-1 LTR by TNF-alpha-induced NF-kB assay at 100 uM concentration (TNF-alpha-treated cells);toxic at this dose; format: functional, organism-based
[14] = test system: Human immunodeficiency virus 1; test: Compound was evaluated for anti-Tat activity in the HeLa-TAT-Luc cell assay against human immunodeficiency virus at 50 uM concentration (Untreated cells);toxic at this dose; format: functional, organism-based
[15] = test system: Human immunodeficiency virus 1; test: Compound was evaluated for anti-Tat activity in the HeLa-TAT-Luc cell assay against human immunodeficiency virus at 100 uM concentration (Untreated cells);toxic at this dose; format: functional, organism-based

SMILES | inhibition at 100 µM [1] [%] | inhibition at 100 µM [2] [%] | Cell death [3] | inhibition at 50 µM [4] [%] | inhibition at 50 µM [5] [%] | inhibition at 25 µM [6] [%] | Cell death [7] | inhibition at 25 µM [8] [%] | inhibition at 50 µM [9] [%] | inhibition at 25 µM [10] [%] | IC50 [11] [µM] | CC50 [12] [µM] | inhibition [13] | inhibition [14] | inhibition [15]
COc1cc([C@@H]2c3cccc4cccc(c34)C3(SCCCS3)[C@H](CO)[C@@H]2CO)cc(OC)c1OC | 25.2 | 16.4 | 6.7% | 35.2 | 17.6 | 11.7 | 7.9% | 43.5 |  |  |  |  |  |  | 
COC(=O)[C@H]1[C@H](c2cc(OC)c(OC)c(OC)c2)c2c(ccc3ccccc23)C(=O)[C@]12CCN=N2 | 92 | 46 | 43.1 | 87.1 | 42.2 | 38.8 | 30 | 32.9 | > 15 | > 15 |  |  |  |  | 
COc1cc([C@@H]2c3c(ccc4ccccc34)C(=O)[C@H]3COC(=O)[C@@H]23)cc(OC)c1OC | 95.5 | 43 | 4.5% | 25.8 | 60 | -0.6 | 5.5% | 32.9 | > 15 | < 15 |  |  |  |  | 
COc1cc2c(c(OC)c1OC)[C@]13C(=O)OC[C@H]1[C@@H](C)c1cccc4cccc(c14)[C@@H]23 |  | -53.1 | 11.3% | 56.1 | -52.9 | -53.1 | 7.8% | 73.6 | < 15 | < 15 | 2.29 | > 50 |  |  | 
CCn1c2ccccc2c2cc(C3(C4COC(=O)C4)SCCCS3)ccc21 (configuration not stated) | 17.6 | 40.1 | 4.2% | 30 | 41.5 | 43.4 | 4.9% | -7.1 | < 15 | < 15 | 4.52 | > 50 |  |  | 
COc1cc(C(O)[C@H]2C(=O)OCC2C2(c3ccc4ccccc4c3)SCCCS2)cc(OC)c1OC (some centres not stated) | 65.9 | 30.9 | 14.6% | 57.2 | 38.8 | 36.6 | 11.4% | 77 | > 15 | > 15 |  |  |  |  | 
COc1cc(C(O)[C@@H]2C(=O)OCC2C(=O)c2cccc3ccccc23)cc(OC)c1OC (some centres not stated) |  | 65 | 45.7% | 64.2 | 18 | 1.6 | 32.1% | 37.5 | > 15 | > 15 |  |  | Toxic |  | 
COc1cc([C@@H]2c3cccc4cccc(c34)C3(SCCCS3)[C@@H]3COC(=O)[C@@H]23)cc(OC)c1OC | 23.6 | -40.9 | 10.5% | 38 | -39.7 | -35.9 | 10.3% | 21.8 |  |  |  |  |  |  | 
O=C1CC(C2(c3cccc4ccccc34)SCCCS2)CO1 (configuration not stated) | 81 | 25.6 | 3.5% | 24.2 | 9.7 | 6 | 2.9% | 3 | > 15 | < 15 |  |  |  |  | 
COc1cc([C@H]2c3c(ccc4ccccc34)C3(SCCCS3)[C@H]3COC(=O)[C@H]23)cc(OC)c1OC | -11.7 | -19 |  | 10.8 | -9.4 | -9.1 |  | 17.6 |  |  |  |  |  |  | 
COc1cc(C2C(=O)OCC2C(=O)c2cccc3ccccc23)cc(OC)c1OC (configuration not stated) |  |  | 7.6% | 24.9 |  | 11.6 | 6.2% | 1.5 | > 15 | > 15 |  |  | Toxic | Toxic | Toxic
CCn1c2ccccc2c2cc(C3(C4COC(=O)[C@@H]4C(O)c4cc(OC)c(OC)c(OC)c4)SCCCS3)ccc21 (some centres not stated) | 43.7 | 30.7 | 4% | 39.7 | 20.3 | 11.9 | 4.6% | 38.5 | < 15 | < 15 | 26.8 | > 50 |  |  | 
C=C1C(=O)c2ccc3ccccc3c2[C@@H](c2cc(OC)c(OC)c(OC)c2)[C@@H]1C(=O)OC |  |  | 98% | 98.9 |  | 56.2 | 95% | 96.7 | > 15 | < 15 |  |  | Toxic | Toxic | Toxic
